{
  "source": "paper PMC9647539",
  "about": "“Computational and functional studies of the PI(4,5)P2 binding site of the TRPM3 ion channel reveal interactions with other regulators” (The Journal of Biological Chemistry, 2022)",
  "key": {"[1]": {"system": "Human TRPM3_1325 splice variant or its mutants", "parameters": "method as in PMID 26123195", "conditions": "35 nM wortmannin (selectively inhibits PI3K); cited from earlier work"}, "[2]": {"system": "Human TRPM3_1325 splice variant or its mutants", "experiment": "Wortmannin inhibition of PregS-induced currents (PI(4,5)P2 depletion), TEVC in Xenopus oocytes", "type": "cell-based", "conditions": "35 μM wortmannin 2 h; for inhibition of PregS-induced currents after wortmannin treatment, compared with WT TRPM3: 100 mV; for inhibition of PregS-induced currents after wortmannin treatment, WT vs disease mutants: V990M and P1090Q", "description": "Next, we mutated the predicted PI(4,5)P2-interacting residues in TRPM3 and tested the effects of the mutations on sensitivity to inhibition by decreasing PI(4,5)P2 levels. We expressed the WT and mutant channels in Xenopus oocytes and performed two-electrode voltage clamp (TEVC) experiments. We stimulated channel activity with 50 μM PregS and measured current amplitudes, then incubated the oocytes with 35 μM wortmannin for 2 h, and measured PregS-induced currents in the same oocytes (Fig. 3, A and B). Wortmannin at this concentration inhibits phosphatidylinositol 4-kinases and has been used to inhibit the activity of PI(4,5)P2-dependent ion channels ([39]). […] Mutating a PI(4,5)P2-interacting residue is expected to increase inhibition by high concentrations of wortmannin ([39]). […] We also generated two additional mutations in the TRP domain in residues that are not in contact with PI(4,5)P2, K1128Q and R1141Q.\n(§1) To express exogenous proteins, RNA was microinjected into oocytes using a nanoliter-injector system (Warner Instruments). RNA was in vitro transcribed from the linearized pGEMSH vectors, which contained the complementary DNA clones for hTRPM3 ([38]) rat TRPM8, human M2 muscarinic (hM2) receptor, or Gβγ subunits by using the mMessage mMachine T7 Transcription Kit (Thermo Fisher Scientific). […] For coexpression of TRPM3 constructs and Gβ1γ2 subunits, 40 ng of TRPM3 was coinjected with 5 ng Gβ1 and 5 ng Gγ2. In the case of coexpressing TRPM3 and hM2 receptors, these two were injected at 1:1 ratio, 40 ng each. Oocytes were used for electrophysiological experiments after 48 to 72 h incubation at 16 °C after RNA injection.\n(§2) Oocytes were placed in extracellular solution, which contained 97 mM NaCl, 2 mM KCl, 1 mM MgCl2, and 5 mM Hepes, pH 7.4. Currents were measured with a protocol consisting a voltage step from the 0 mV holding potential to −100 mV, followed by a ramp to 100 mV once every 0.5 s with a GeneClamp 500B amplifier and analyzed with the pClamp 9.0 software (Molecular Devices). Currents were recorded by thin wall glass pipettes that contained inner filament and were filled with 1% agarose in 3 M KCl. In all TEVC experiments, different concentrations of PregS were applied to activate TRPM3 channels, and various concentrations of menthol were used to trigger responses of TRPM8 channels. The hM2 receptor was activated by 5 μM acetylcholine. For wortmannin experiments specifically, PregS, or menthol-induced currents were measured, then the same oocyte was incubated with 35 μM wortmannin for 2 h, and currents were measured again using the same protocol. In the bar graphs in Figure 3, the individual panels show experiments that were performed on the same day."}, "[3]": {"system": "Rat TRPM8 or its mutants", "experiment": "Wortmannin inhibition of menthol-induced currents (PI(4,5)P2 depletion), TEVC in Xenopus oocytes", "type": "cell-based", "conditions": "35 μM wortmannin 2 h; 500 μM menthol; 100 mV; R851Q and W682Q mutants", "description": "as §1, with “Oocytes were used for electrophysiological experiments after 48 to 72 h incubation at 16 °C after RNA injection.” left out\nas §2, with “In all TEVC experiments, different concentrations of PregS were applied to activate TRPM3 channels, and various concentrations of menthol were used to trigger responses of TRPM8 channels. The hM2 receptor was activated by 5 μM acetylcholine.” left out, “In the bar graphs in Figure 3, the individual panels show experiments that were performed on the same day.” left out"}, "[4]": {"system": "hTRPM3", "parameters": "method as in PMID 32343227", "conditions": "hTRPM3 WT; read-out: EC50 concentration of PregS; cited from earlier work"}, "[5]": {"system": "hTRPM3 P1090Q", "parameters": "method as in PMID 32343227", "conditions": "P1090Q mutant; read-out: EC50 concentration of PregS; cited from earlier work"}, "[6]": {"system": "TRPM3_1325 splice variant or its mutants", "experiment": "PregS concentration dependence, TEVC in Xenopus oocytes", "type": "cell-based, human", "conditions": "100 mV; N991A and K992A mutants", "description": "as §1, with “Oocytes were used for electrophysiological experiments after 48 to 72 h incubation at 16 °C after RNA injection.” left out\nas §2, with “In all TEVC experiments, different concentrations of PregS were applied to activate TRPM3 channels, and various concentrations of menthol were used to trigger responses of TRPM8 channels. The hM2 receptor was activated by 5 μM acetylcholine.” left out, “In the bar graphs in Figure 3, the individual panels show experiments that were performed on the same day.” left out"}, "[7]": {"system": "hTRPM3 V990M", "parameters": "method as in PMID 32343227", "conditions": "V990M mutant; read-out: EC50 concentration of PregS; cited from earlier work"}, "[8]": {"biological_target": "T1, hTRPM3 or its mutant N991A (Homo sapiens, UniProt Q9HCF6, N1016A)", "T1 construct": "expressed in transfected cells; host or cells: Xenopus laevis oocytes (excised inside-out patches)", "T1 sequence (Q9HCF6 1-1325 isoform Q9HCF6-10 N991A)": "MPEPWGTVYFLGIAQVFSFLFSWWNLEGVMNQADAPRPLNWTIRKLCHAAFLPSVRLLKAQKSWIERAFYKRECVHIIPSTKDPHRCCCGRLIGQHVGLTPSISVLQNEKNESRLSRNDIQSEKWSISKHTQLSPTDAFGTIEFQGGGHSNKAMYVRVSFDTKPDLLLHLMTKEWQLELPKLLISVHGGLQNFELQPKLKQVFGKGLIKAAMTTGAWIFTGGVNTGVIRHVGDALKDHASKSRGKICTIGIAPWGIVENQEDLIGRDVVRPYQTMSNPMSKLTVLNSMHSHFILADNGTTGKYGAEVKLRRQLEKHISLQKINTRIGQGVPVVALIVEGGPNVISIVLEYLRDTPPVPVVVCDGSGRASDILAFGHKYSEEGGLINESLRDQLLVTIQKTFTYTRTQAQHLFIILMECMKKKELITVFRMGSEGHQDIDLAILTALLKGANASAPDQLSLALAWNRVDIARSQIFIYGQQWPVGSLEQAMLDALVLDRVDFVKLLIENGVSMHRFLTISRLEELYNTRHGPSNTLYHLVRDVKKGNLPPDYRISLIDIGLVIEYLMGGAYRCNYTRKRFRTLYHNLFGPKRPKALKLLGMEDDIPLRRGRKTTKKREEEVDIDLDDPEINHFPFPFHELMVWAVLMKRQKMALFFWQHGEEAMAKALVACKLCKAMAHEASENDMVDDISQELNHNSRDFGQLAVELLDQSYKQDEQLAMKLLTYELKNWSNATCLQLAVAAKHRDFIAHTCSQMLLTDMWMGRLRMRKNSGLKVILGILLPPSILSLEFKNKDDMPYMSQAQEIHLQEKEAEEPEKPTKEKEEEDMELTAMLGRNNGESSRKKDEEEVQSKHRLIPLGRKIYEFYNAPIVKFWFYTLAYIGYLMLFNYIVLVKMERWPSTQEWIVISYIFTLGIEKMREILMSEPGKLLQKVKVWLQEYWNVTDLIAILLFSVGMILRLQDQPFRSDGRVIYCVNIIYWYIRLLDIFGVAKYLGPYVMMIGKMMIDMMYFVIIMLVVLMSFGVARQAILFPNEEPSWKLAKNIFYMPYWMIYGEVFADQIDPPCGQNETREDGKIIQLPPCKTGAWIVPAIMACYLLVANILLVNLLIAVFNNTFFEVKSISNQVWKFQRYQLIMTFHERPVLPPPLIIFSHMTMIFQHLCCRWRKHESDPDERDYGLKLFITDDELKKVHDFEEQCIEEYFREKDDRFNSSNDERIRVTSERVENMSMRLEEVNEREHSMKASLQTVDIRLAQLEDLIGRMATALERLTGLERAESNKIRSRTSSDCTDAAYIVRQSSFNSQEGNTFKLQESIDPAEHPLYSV", "experiment": "Excised inside-out patch clamp, relative effect of PI(4)P compared to PI(4,5)P2", "type": "cell-based", "conditions": "25 μM diC8 PI(4)P vs 25 μM diC8 PI(4,5)P2, 100 μM PregS in pipette", "description": "Oocytes were placed in a recording chamber filled with bath solution, which contained 97 mM KCl, 5 mM EGTA, 10 mM Hepes, pH 7.4. Before starting measurements, the vitelline layer was carefully removed with forceps without damaging the oocyte. Then a giga-ohm seal was formed using a borosilicate glass pipette (World Precision Instruments) with resistance from 0.8 to 1 MΩ. The pipette was filled with a solution containing 97 mM NaCl, 2 mM KCl, 1 mM MgCl2, 5 mM Hepes, and 100 μM PregS at pH 7.4. Currents were measured by an Axopatch 200B amplifier and analyzed with the pClamp 9.0 software. Compounds were dissolved in the bath solution and delivered to the inner side of cell membrane by a custom-made gravity-driven perfusion system. Either 25 μM PI(4,5)P2, 25 μM PI(4)P, or 10 μM AASt PI(4,5)P2 was applied in these experiments to reactivate TRPM3. At the end of every recording, 30 μg/ml Poly-Lys (Poly-K) was applied."}, "[9]": {"system": "Rat TRPM8 or its mutants", "experiment": "Menthol concentration dependence, TEVC in Xenopus oocytes", "type": "cell-based", "conditions": "100 mV; R851A and W682Q mutants", "description": "as §1, with “Oocytes were used for electrophysiological experiments after 48 to 72 h incubation at 16 °C after RNA injection.” left out\nas §2, with “In all TEVC experiments, different concentrations of PregS were applied to activate TRPM3 channels, and various concentrations of menthol were used to trigger responses of TRPM8 channels. The hM2 receptor was activated by 5 μM acetylcholine.” left out, “In the bar graphs in Figure 3, the individual panels show experiments that were performed on the same day.” left out"}, "[10]": {"system": "mouse TRPM3α2 (mTRPM3α2) or its mutant N993A", "experiment": "Whole-cell patch clamp with rapamycin-inducible pseudojanin phosphatase in HEK293 cells", "type": "cell-based", "conditions": "100 nM rapamycin", "description": "Human embryonic kidney 293 cells were purchased from American Type Culture Collection (catalog number: CRL-1573). Human embryonic kidney 293 cells were cultured in minimum essential medium supplemented with 10% fetal bovine serum and 100 IU/ml penicillin plus 100 μg/ml streptomycin. Cells were incubated in 5% CO2 at 37 °C. Cells were tested to confirm that they were not infected by mycoplasma. Cells were used up to 25 passages and then discarded. Cells were transiently transfected with complementary DNA encoding different TRPM3 constructs (200–400 ng) using the Effectene reagent (Qiagen). mTRPM3α2 and its mutant were cloned into the bicistronic pCAGGS/IRES-GFP vector. The components of rapamycin-inducible pseudojanin phosphatases ([40]) were cotransfected with mTRPM3α2 at 1:1 ratio.\nAfter 24 h of transfection, cells were plated on poly-D-lysine–coated 12 mm cover slips. Experiments were performed 48 to 72 h after transfection. […] After formation of gigaohm-resistance seals, the whole cell configuration was established, and currents were recorded by applying a ramp protocol once every 1 s. […] Data were collected and analyzed with the pClamp10.6 (Clampex) acquisition software (Molecular Devices) and further analyzed and plotted with Prism 9 (GraphPad by Dotmatics). […]"}},
  "data": [
    {"molecule": "COC[C@H]1OC(=O)c2coc3c2[C@@]1(C)C1=C(C3=O)[C@@H]2CCC(=O)[C@@]2(C)C[C@H]1OC(C)=O", "note": "[wortmannin]", "values": [
      {"measurement": "inhibition of TRPM3 by wortmannin", "setting": "[1]", "value": "did not inhibit TRPM3"},
      {"measurement": "inhibition of PregS-induced currents after wortmannin treatment, compared with WT TRPM3", "setting": "[2]; 50 μM PregS, R1141Q mutant", "value": "small but significant increase"},
      {"measurement": "inhibition of PregS-induced currents after wortmannin treatment, compared with WT TRPM3", "setting": "[2]; 50 μM PregS, mutants W761F, N991A, K992A and R1131Q", "value": "significantly higher inhibition"},
      {"measurement": "inhibition of PregS-induced currents after wortmannin treatment, WT vs disease mutants", "setting": "[2]; 50 μM PregS", "value": "inhibited to a similar extent"},
      {"measurement": "inhibition of PregS-induced currents after wortmannin treatment, WT vs disease mutants", "setting": "[2]; PregS at respective EC50 (17, 0.6, 7 μM)", "value": "inhibited to a similar extent to WT channels"},
      {"measurement": "inhibition of menthol-induced currents by wortmannin, compared with WT TRPM8", "setting": "[3]", "value": "significantly higher level of inhibition"}
    ]},
    {"molecule": "pregnenolone sulfate [PregS]", "values": [
      {"measurement": "EC50", "setting": "[4]", "value": 17, "unit": "µM"},
      {"measurement": "EC50", "setting": "[5]", "value": 7, "unit": "µM"},
      {"measurement": "PregS dose response, compared with WT TRPM3", "setting": "[6]", "value": "shifted the PregS dose response to the right"},
      {"measurement": "EC50", "setting": "[7]", "value": 0.6, "unit": "µM"}
    ]},
    {"molecule": "CCCCCCCC(=O)OC[C@H](COP(=O)(O)O[C@H]1[C@H](O)[C@@H](O)[C@H](OP(=O)(O)O)[C@@H](O)[C@H]1O)OC(=O)CCCCCCC", "note": "[PI(4)P]", "values": [
      {"measurement": "relative effect of PI(4)P compared with PI(4,5)P2", "setting": "[8]", "value": "did not change"}
    ]},
    {"molecule": "CC1CCC(C(C)C)C(O)C1", "note": "(centres unmarked) [menthol]", "values": [
      {"measurement": "menthol dose response, compared with WT TRPM8", "setting": "[9]", "value": "right shifted"}
    ]},
    {"molecule": "CO[C@H]1C[C@@H]2CC[C@@H](C)[C@@](O)(O2)C(=O)C(=O)N2CCCC[C@H]2C(=O)O[C@H]([C@H](C)C[C@@H]2CC[C@@H](O)[C@H](OC)C2)CC(=O)[C@H](C)/C=C(\\C)[C@@H](O)[C@@H](OC)C(=O)[C@H](C)C[C@H](C)/C=C/C=C/C=C/1C", "note": "[rapamycin]", "values": [
      {"measurement": "inhibition by rapamycin (PI(4,5)P2 depletion), N993A compared with WT mTRPM3α2", "setting": "[10]; currents induced by 25 μM PregS plus 10 μM clotrimazole", "value": "significantly larger inhibition"},
      {"measurement": "inhibition by rapamycin (PI(4,5)P2 depletion), N993A compared with WT mTRPM3α2", "setting": "[10]; currents stimulated with 25 μM PregS", "value": "significantly higher inhibition"}
    ]}
  ]
}
